Source: ChEMBL document CHEMBL2203066 (J Med Chem, 2012)
Calls of active or inactive are those of the source. No cut-off for these calls is given here.

Experiments:
[1] = Drug metabolism in rat liver microsomes at 3 uM after 1 hr; assay type: ADME, Microsome; conditions: read-out: Drug metabolism
[2] = Drug metabolism in dog liver microsomes at 3 uM after 1 hr; assay type: ADME, Canis lupus familiaris, Microsome; conditions: read-out: Drug metabolism
[3] = Drug metabolism in human liver microsomes at 3 uM after 1 hr; assay type: ADME, Microsome; conditions: read-out: Drug metabolism
Influenza A virus [4] = assay: Antiviral activity against Influenza A virus A/WSN/1933(H1N1) infected in BALB/c mouse assessed as partial protection against virus-induced body weight loss at 0.1 mg/kg/day, po bid for 5 days followed by viral infection at 4 hrs post first dose measured 2 to 14 days post infection; assay type: functional, organism-based
Influenza A virus [5] = assay: Antiviral activity against Influenza A virus A/CA/07/2009(H1N1) infected in BALB/c mouse assessed as protection against virus-induced mortality at 1 mg/kg/day, po bid for 5 days followed by viral infection at 4 hrs post first dose measured on day 20 to day 21; assay type: functional, organism-based; conditions: A/California/07/2009(H1N1)
Influenza A virus [6] = assay: Antiviral activity against Influenza A virus A/CA/07/2009(H1N1) infected in BALB/c mouse assessed as protection against virus-induced body weight loss at 1 mg/kg/day, po bid for 5 days followed by viral infection at 4 hrs post first dose measured 20 days post infection; assay type: functional, organism-based; conditions: A/California/07/2009(H1N1)
Influenza A virus [7] = assay: Antiviral activity against Influenza A virus A/WSN/1933(H1N1) infected in BALB/c mouse assessed as protection against virus-induced mortality at 1 mg/kg/day, po bid for 5 days followed by viral infection at 4 hrs post first dose measured after 2 to 14 days; assay type: functional, organism-based
Influenza A virus [8] = assay: Antiviral activity against Influenza A virus A/WSN/1933(H1N1) infected in BALB/c mouse assessed as partial protection against virus-induced mortality at 0.1 mg/kg/day, po bid for 5 days followed by viral infection at 4 hrs post first dose measured 2 to 14 days post infection; assay type: functional, organism-based
Influenza A virus [9] = assay: Antiviral activity against Influenza A virus A/CA/07/2009(H1N1) infected in BALB/c mouse assessed as protection against virus-induced body weight loss at 0.1 mg/kg/day, po bid for 5 days followed by viral infection at 4 hrs post first dose measured after 2 to 14 days; assay type: functional, organism-based; conditions: A/California/07/2009(H1N1)
Influenza A virus [10] = assay: Antiviral activity against Influenza A virus A/CA/07/2009(H1N1) infected in BALB/c mouse assessed as protection against virus-induced mortality at 0.1 mg/kg/day, po bid for 5 days followed by viral infection at 4 hrs post first dose measured after 2 to 14 days; assay type: functional, organism-based; conditions: A/California/07/2009(H1N1)
Influenza A virus [11] = assay: Antiviral activity against Influenza A virus A/WSN/1933(H1N1) infected in BALB/c mouse assessed as protection against virus-induced body weight loss at 10 mg/kg/day, po bid for 5 days followed by viral infection at 4 hrs post first dose measured 8 days post infection; assay type: functional, organism-based
Influenza A virus [12] = assay: Antiviral activity against Influenza A virus A/CA/07/2009(H1N1) infected in BALB/c mouse assessed as protection against virus-induced body weight loss at 10 mg/kg/day, po bid for 5 days followed by viral infection at 4 hrs post first dose measured 2 to 14 days post infection; assay type: functional, organism-based; conditions: A/California/07/2009(H1N1)
Influenza A virus [13] = assay: Antiviral activity against Influenza A virus A/WSN/1933(H1N1) infected in BALB/c mouse assessed as protection against virus-induced mortality at 10 mg/kg/day, po bid for 5 days followed by viral infection at 4 hrs post first dose measured 8 days post infection; assay type: functional, organism-based
Mus musculus [14] = assay: Acute toxicity in CD1 mouse assessed as hunched posture at 300 to 2000 mg/kg, ip measured within 2 days; assay type: organism-based; design: dose 300-2000 mg/kg, route intraperitoneal; conditions: in vivo, 48 h
Mus musculus [15] = assay: Acute toxicity in CD1 mouse assessed as hypoactivity at 300 to 2000 mg/kg, ip measured within 2 days; assay type: organism-based; design: dose 300-2000 mg/kg, route intraperitoneal; conditions: in vivo, 48 h
Mus musculus [16] = assay: Acute toxicity in CD1 mouse assessed as tremor at 300 to 2000 mg/kg, ip measured within 2 days; assay type: organism-based; design: dose 300-2000 mg/kg, route intraperitoneal; conditions: in vivo, 48 h
Mus musculus [17] = assay: Acute toxicity in CD1 mouse assessed as mortality at 2000 mg/kg, ip; assay type: organism-based; design: dose 2000 mg/kg, route intraperitoneal; conditions: in vivo
Mus musculus [18] = assay: Acute toxicity in CD1 mouse assessed as convulsion at 300 to 2000 mg/kg, ip measured within 2 days; assay type: organism-based; design: dose 300-2000 mg/kg, route intraperitoneal; conditions: in vivo, 48 h
Influenza A virus [19] = assay: Antiviral activity against Influenza A virus A/Brisbane/10/2007(H3N2) infected in MDCK cells assessed as protection against virus-induced cytopathic effect after 48 to 72 hrs by CellTiter 96 aqueous assay; assay type: functional, organism-based
Mus musculus [20] = assay: Acute toxicity in CD1 mouse assessed as piloerection at 300 to 2000 mg/kg, ip measured within 2 days; assay type: organism-based; design: dose 300-2000 mg/kg, route intraperitoneal; conditions: in vivo, 48 h
Mus musculus [21] = assay: Acute toxicity in CD1 mouse assessed as body jerks at 300 to 2000 mg/kg, ip measured within 2 days; assay type: organism-based; design: dose 300-2000 mg/kg, route intraperitoneal; conditions: in vivo, 48 h
MDCK = assay: Cytotoxicity against MDCK cells at 100 uM; assay type: cell-based, Canis lupus familiaris; conditions: dog
Plasma = assay: Plasma concentration in Sprague-Dawley rat at 1 mg/kg, po; assay type: ADME, organism-based; design: dose 1 mg/kg, route oral; conditions: in vivo, BLD = below limit of detection
Mus musculus [22] = assay: Acute toxicity in CD1 mouse assessed as lesions at 300 to 2000 mg/kg, ip after 15 days by necropsy analysis; assay type: organism-based; design: dose 300-2000 mg/kg, route intraperitoneal; conditions: in vivo, 360 h
Mus musculus [23] = assay: Acute toxicity in CD1 mouse assessed as body jerks at 300 to 1000 mg/kg, iv measured within 2 days; assay type: organism-based; design: dose 300-1000 mg/kg, route intravenous; conditions: in vivo, 48 h
Mus musculus [24] = assay: Acute toxicity in CD1 mouse assessed as tremor at 300 to 1000 mg/kg, iv measured within 2 days; assay type: organism-based; design: dose 300-1000 mg/kg, route intravenous; conditions: in vivo, 48 h
Mus musculus [25] = assay: Acute toxicity in CD1 mouse assessed as piloerection at 300 to 1000 mg/kg, iv measured within 2 days; assay type: organism-based; design: dose 300-1000 mg/kg, route intravenous; conditions: in vivo, 48 h
Mus musculus [26] = assay: Acute toxicity in CD1 mouse assessed as lesions at 300 to 1000 mg/kg, iv after 15 days by necropsy analysis; assay type: organism-based; design: dose 300-1000 mg/kg, route intravenous; conditions: in vivo, 360 h
Mus musculus [27] = assay: Acute toxicity in CD1 mouse assessed as mortality at 750 mg/kg, iv; assay type: organism-based; design: dose 750 mg/kg, route intravenous; conditions: in vivo
Mus musculus [28] = assay: Acute toxicity in CD1 mouse assessed as hunched posture at 300 to 1000 mg/kg, iv measured within 2 days; assay type: organism-based; design: dose 300-1000 mg/kg, route intravenous; conditions: in vivo, 48 h
Mus musculus [29] = assay: Acute toxicity in CD1 mouse assessed as hypoactivity at 300 to 1000 mg/kg, iv measured within 2 days; assay type: organism-based; design: dose 300-1000 mg/kg, route intravenous; conditions: in vivo, 48 h
Neuraminidase = Neuraminidase (Influenza A virus, UniProt B4URF0)
Sequence of Neuraminidase (B4URF0 whole entry): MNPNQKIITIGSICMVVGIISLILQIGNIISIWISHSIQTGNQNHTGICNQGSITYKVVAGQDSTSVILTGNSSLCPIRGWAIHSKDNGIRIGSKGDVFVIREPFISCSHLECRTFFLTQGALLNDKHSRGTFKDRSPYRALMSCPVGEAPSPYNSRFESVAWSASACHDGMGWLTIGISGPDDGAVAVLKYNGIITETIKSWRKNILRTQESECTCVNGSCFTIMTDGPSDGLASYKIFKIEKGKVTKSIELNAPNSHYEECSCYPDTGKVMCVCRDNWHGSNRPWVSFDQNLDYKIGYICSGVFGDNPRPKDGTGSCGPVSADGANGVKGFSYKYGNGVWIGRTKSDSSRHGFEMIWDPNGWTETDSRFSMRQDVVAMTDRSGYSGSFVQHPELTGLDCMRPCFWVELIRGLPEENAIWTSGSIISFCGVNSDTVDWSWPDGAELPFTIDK

Mus musculus [30] = assay: Acute toxicity in CD1 mouse assessed as convulsion at 300 to 1000 mg/kg, iv measured within 2 days; assay type: organism-based; design: dose 300-1000 mg/kg, route intravenous; conditions: in vivo, 48 h
in vivo = conditions: Sprague-Dawley, rat, po, 10 mg/kg
Blood [31] = assay: Metabolic stability in human whole blood at 5 uM; assay type: ADME, tissue-based
Influenza B virus [32] = assay: Antiviral activity against Influenza B virus B/Florida/4/2006 infected in MDCK cells assessed as protection against virus-induced cytopathic effect after 48 to 72 hrs by CellTiter 96 aqueous assay; assay type: functional, cell-based; conditions: B/Florida/4/2006, MDCK
Blood [33] = assay: Metabolic stability in rat whole blood at 5 uM; assay type: ADME, tissue-based
Liver microsomes [34] = assay: Metabolic stability in rat liver microsomes at 3 uM; assay type: ADME, Microsome
[35] = Drug excretion in Sprague-Dawley rat urine at 5 mg/kg, po; assay type: ADME, organism-based; design: dose 5 mg/kg, route oral; conditions: read-out: Drug excretion
Liver microsomes [36] = assay: Metabolic stability in human liver microsomes at 3 uM; assay type: ADME, Microsome
[37] = Metabolic stability in dog whole blood at 5 uM; assay type: ADME, tissue-based, Canis lupus familiaris
[38] = Drug excretion in Sprague-Dawley rat feces at 5 mg/kg, po; assay type: ADME, organism-based; design: dose 5 mg/kg, route oral; conditions: faeces, read-out: Drug excretion
Liver = assay: Metabolic stability in dog liver microsomes at 3 uM; assay type: ADME, Canis lupus familiaris, Microsome
Influenza B virus [39] = assay: Antiviral activity against Influenza B virus B/Sichuan/379/99 infected in MDCK cells assessed as protection against virus-induced cytopathic effect after 48 to 72 hrs by CellTiter 96 aqueous assay; assay type: functional, organism-based; conditions: B/Sichuan/379/99, MDCK

SMILES: C[C@]12CC[C@H]3[C@@H](CCC4=CC(=O)CC[C@@]43C)[C@@H]1CC[C@@H]2O [TESTOSTERONE]
- metabolised at 1 h, 3 µM [1]: 65%
- metabolised at 1 h, 3 µM [2]: 65%
- metabolised at 1 h, 3 µM [3]: 65%

SMILES: CCOP(=O)(O)C1=C[C@@H](OC(CC)CC)[C@H](NC(C)=O)[C@@H](NC(=N)N)C1 [TAMIPHOSPHOR MONOETHYL ESTER]
- Activity (Influenza A virus [4]): Active
- Activity (Influenza A virus [5]): inactive
- Activity (Influenza A virus [6]): inactive
- Activity (Influenza A virus [7]): Active
- Activity (Influenza A virus [8]): Active
- Activity (Influenza A virus [9]): inactive
- Activity (Influenza A virus [10]): inactive
- Activity (Influenza A virus [11]): Active
- Activity (Influenza A virus [12]): Active
- Activity (Influenza A virus [13]): Active

SMILES: CCOP(=O)(O)C1=C[C@@H](OC(CC)CC)[C@H](NC(C)=O)[C@@H](N)C1 [TAMIPHOSPHOR MONOETHYL ESTER]
- Activity (Influenza A virus [4]): Active
- Activity (Mus musculus [14]): Non-toxic
- Activity (Mus musculus [15]): Non-toxic
- Activity (Mus musculus [16]): Non-toxic
- Activity (Influenza A virus [7]): Active
- Activity (Mus musculus [17]): Toxic
- Activity (Mus musculus [18]): Non-toxic
- EC50 (Influenza A virus [19]): > 10 µM
- Activity (Mus musculus [20]): Non-toxic
- Activity (Mus musculus [21]): Non-toxic
- Activity (MDCK): Non-toxic
- Activity (Influenza A virus [8]): Active
- Activity (Influenza A virus [11]): Active
- Cp (Plasma): BLD
- Activity (Influenza A virus [13]): Active
- Activity (Mus musculus [22]): Non-toxic

SMILES: CCOP(=O)(OCC)C1=C[C@@H](OC(CC)CC)[C@H](NC(C)=O)[C@@H](N)C1
- Activity (Influenza A virus [7]): Active
- Activity (Influenza A virus [11]): inactive
- Activity (Influenza A virus [13]): inactive

SMILES: CCC(CC)O[C@@H]1C=C(P(=O)(O)O)C[C@H](N)[C@H]1NC(C)=O [TAMIPHOSPHOR]
- Activity (Mus musculus [23]): Non-toxic
- Activity (Mus musculus [24]): Non-toxic
- Activity (Mus musculus [25]): Non-toxic
- Activity (Mus musculus [26]): Non-toxic
- Activity (Mus musculus [27]): Toxic
- Activity (Influenza A virus [7]): Active
- EC50 (Influenza A virus [19]): > 10 µM
- Activity (Mus musculus [28]): Non-toxic
- Activity (Mus musculus [29]): Non-toxic
- Activity (MDCK): Non-toxic
- IC50 (Neuraminidase): 0.0018 µM
- Activity (Mus musculus [30]): Non-toxic
- Activity (Influenza A virus [11]): Active
- Activity (Influenza A virus [13]): Active

SMILES: CC(=O)N[C@H]1[C@H]([C@H](O)[C@H](O)CO)OC(C(=O)O)=C[C@@H]1N=C(N)N [ZANAMIVIR]
- bioavailability (in vivo): 3.7%

SMILES: Cc1ncc2n1-c1ccc(Cl)cc1C(c1ccccc1F)=NC2 [MIDAZOLAM]
- metabolised at 1 h, 3 µM [1]: 65%
- metabolised at 1 h, 3 µM [2]: 65%
- metabolised at 1 h, 3 µM [3]: 65%

SMILES: CCC(CC)O[C@@H]1C=C(P(=O)(O)O)C[C@H](NC(=N)N)[C@H]1NC(C)=O
- Stability (Blood [31]): Unstable
- Activity (Influenza A virus [5]): inactive
- Activity (Influenza A virus [6]): inactive
- EC50 (Influenza B virus [32]): > 10 µM
- Stability (Blood [33]): Unstable
- Activity (Influenza A virus [7]): Active
- Stability (Liver microsomes [34]): Unstable
- EC50 (Influenza A virus [19]): > 10 µM
- Activity (MDCK): Non-toxic
- IC50 (Neuraminidase): 0.0003 µM
- Activity (Influenza A virus [9]): inactive
- dose excreted [35]: 1.5%
- Activity (Influenza A virus [10]): inactive
- Stability (Liver microsomes [36]): Unstable
- Activity (Influenza A virus [11]): Active
- Stability [37]: Unstable
- dose excreted [38]: 43.2%
- Activity (Influenza A virus [12]): Active
- Stability (Liver): Unstable
- EC50 (Influenza B virus [39]): > 10 µM
- Activity (Influenza A virus [13]): Active
